Assays:
rats = experiment: Shock-Induced Suppression of Drinking (Rats) (SSD) Test; type: in vivo, rat; conditions: significant, P less than 0.05, Students' t-test, vs control
Description: Male rats in the weight range of 200 to 220 grams are deprived of water for 48 hours and deprived of food for 24 hours before testing. Normally, the rats are orally intubated (5 ml/kg) with the test compound (based on mg/kg body weight). The vehicle control group of rats is also intubated by mouth. A positive control group of rats is also orally administered a control dose of 18 mg/kg of chlordiazepoxide. Random selection of the rats is utilized in dosing. The rats are returned to the cage for one hour. Sixty minutes after drug administration, the rat is quietly removed from its cage and the hind feet wiped with Signa electrode gel made by Parker Laboratories or Orange, N.J. When intraperitoneal (i.p.) administration was used, the protocol was identical except that the drugs were administered (5 ml/kg) 30 minutes prior to testing. The rat is placed on the floor in the chamber facing the licking tube. The animal is allowed 5 minutes to make 20 licking responses and receive the first shock (0.5 mA). […] This period is automatically started, counted and terminated. The number of licks and shocks are recorded. The activity of the compound tested is evaluated by comparing the mean shocks of the group dosed with the test compound to both the mean shocks of the vehicle and positive control groups via a Students' t-test. […]

[1] = tested on: [^3 H]flunitrazepam binding, lysed mitochondrial-synaptosomal (P2) fraction from the cerebral cortex; experiment: [^3 H]flunitrazepam binding test; conditions: 0.2 nM [^3 H]flunitrazepam, rat cerebral cortex membranes, 90 min at 0° C.
[2] = approximate oral LD50 in the rat; conditions: in vivo
monkeys = experiment: oral administration to monkeys, deaths; type: in vivo, monkey; conditions: 100 mg/kg
[3] = tested on: [^3 H]flunitrazepam binding, lysed mitochondrial-synaptosomal (P2) fraction from the cerebral cortex; conditions: general statement on reference compounds; cited from earlier work

Structure (SMILES)	increase in the number of shocks taken (anti-conflict / anti-anxiety activity) (rats)	effect on flunitrazepam binding [1]	LD50 [2] [mg/kg]	deaths (monkeys)	effect on flunitrazepam binding (known compounds) [3]
C=CCN1Cc2nc3c(cnn3CCCCC)c(N)c2C1=O [Example 4, 6-Allyl-4-amino-6,7-dihydro-1-n-pentylpyrazolo[3,4-b]pyrrolo[3,4-e]pyridin-5(1H)-one]	showed activity	activity as displacers of flunitrazepam binding			
CCCCCn1ncc2c(N)c3c(nc21)CN(CCC)C3=O [Example 5, 4-Amino-6,7-dihydro-1-n-pentyl-6-n-propylpyrazolo[3,4-b]pyrrolo[3,4-e]pyridin-5(1H)-one]	showed activity	activity as displacers of flunitrazepam binding	> 800	no deaths	
CCCCNc1c(C(=O)OCC)cnc2c1cnn2CC [cartazolate]					enchancement of the binding
CCCCNc1c(C(=O)OCC)c(C)nc2c1cnn2CC [tracazolate]					enchancement of the binding

— patent US4511568A, “CNS-Depressant pyrazolopyridines” (ICI Americas Inc., priority 1982, dated 1985)
